{"source": "paper PMC4919066", "about": "(PLoS Pathogens, 2016)", "key": {"[1]": {"test_system": "pp28-luciferase HCMV Towne", "test": "Drug combination with GCV, Bliss model", "type": "cell-based, Human Cytomegalovirus", "details": "emetine combined with GCV, luciferase assay", "description": "The combined inhibitory effect of compounds on HCMV replication was determined in infected HFFs as previously reported. The Bliss model, in which drug combination represents the product of two probabilistically independent events, was used for analysis."}, "[2]": {"test_system": "GCV-resistant pp28-luciferase Towne", "test": "GCV-resistant pp28-luciferase HCMV luciferase assay", "type": "cell-based, Human Cytomegalovirus", "details": "Human betaherpesvirus 5, read-out: Mean EC50 ± SD", "description": "(§1) The pp28-luciferase HCMV Towne and a GCV-resistant pp28-luciferase were used. The recombinant viruses express luciferase under the control of the late CMV gene promoter, pp28. Luciferase expression is activated 48–72 hours post infection (hpi). The recombinant viruses provide a highly-sensitive reporter system which correlates with plaque reduction assay. The Towne HCMV strain (ATCC VR-977) was used for plaque reduction, quantitative reverse transcriptase PCR (qRT-PCR), and immunoprecipitation assays. Human herpes virus strains were: luciferase HSV1- KOS/Dlux/oriS [52] and clinical isolates of HSV2. The clinical isolates were provided by the clinical microbiology laboratory with no identifiers that can link to a specific subject. Murid Herpesvirus (MCMV: ATCC VR-1399) was used for infection of mouse embryonic fibroblasts (MEFs) and mice.\n(§2) Human Foreskin Fibroblasts (HFFs) passage 12–16 (ATCC, CRL-2088) and mouse embryonic fibroblasts (MEFs) passage 9–14 (ATCC, CRL-1658) were grown in Dulbecco's Modified Eagle Medium (DMEM) containing 10% fetal bovine serum (FBS) (Gibco, Carlsbad, CA) in a 5% CO2 incubator at 37°C. […] Luciferase activity was measured 72 h following second cycle infection. […] After incubation at 37°C for 10 days (for HCMV), 3 days for MCMV or 2 days (for HSV), the overlay was removed and plaques were counted after crystal violet staining."}, "[3]": {"test_system": "clinical isolates of HSV2", "test": "HSV-2 plaque assay in HFFs", "type": "cell-based", "details": "Human alphaherpesvirus 2, read-out: Mean EC50 ± SD", "description": "as §1, §2"}, "HSV1- KOS/Dlux/oriS": {"test_system": "HSV1- KOS/Dlux/oriS", "test": "HSV-1 luciferase assay in HFFs", "type": "cell-based, herpesvirus 1 (HSV-1)", "details": "Human alphaherpesvirus 1, read-out: Mean EC50 ± SD", "description": "as §1, §2"}}, "note": "Counter-ions that a name gives are not always drawn.", "data": [{"smiles": "CC[C@H]1CN2CCc3cc(OC)c(OC)cc3[C@@H]2C[C@@H]1C[C@H]1NCCc2cc(OC)c(OC)cc21", "note": "[emetine, emetine dihydrochloride hydrate]", "values": [{"measurement": "HCMV inhibition in combination with GCV", "setting": "[1]", "value": "synergistic"}, {"measurement": "EC50", "setting": "[2]", "value": 38, "unit": "nM"}, {"measurement": "EC50", "setting": "[3]", "value": 33, "unit": "nM"}, {"measurement": "EC50", "setting": "HSV1- KOS/Dlux/oriS", "value": 56, "unit": "nM"}]}]}
